In patent publication US10086085B2, “Bifunctional cytotoxic agents” (priority 2014, dated 2018) one finds IC50 data, which are given here for 8 compounds.

pIC50: −log10 of the molar value.

The subject of one experiment is HL60 (leukemia). The experiment is described as follows: Cytotoxicity assay for payloads (MTS), HL-60 cells. The format is cell-based. The following applies: Homo sapiens, 96 h, incubated with compounds for four days, MTS absorbance 490 nm. In outline:
(§1)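 Cells in RPMI 1640 with 10% FBS exposed to compounds for four days at 10 concentrations in duplicate. Viability read by MTS absorbance at 490 nm after 1.5 h, as % of untreated controls; IC50 from four-parameter logistic fit.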

In experiment [1] the test system is N87 (human gastric carcinoma derived from metastatic liver site). Put plainly: Cytotoxicity assay for payloads (MTS), N87 cells. In kind it is cell-based. To be noted: Homo sapiens, 96 h; N87 cells, incubated with compounds for four days, MTS absorbance 490 nm; read-out: N87 IC50. In outline:
as §1

Usually pIC50 stands for the IC50 on a negative log10 scale, so that one unit is a factor of ten. For `O=C(CNCC(=O)N1C[C@@H](CCl)c2c1cc(OP(=O)(O)O)c1ccccc21)N1C[C@@H](CCl)c2c1cc(OP(=O)(O)O)c1ccccc21` [Compound 173, iminobis[(1-oxoethane-2,1-diyl)(1S)-1-(chloromethyl)-1,2-dihydro-3H-benzo[e]indole-3,5-diyl] bis[dihydrogen (phosphate)]], the pIC50 with HL60 (leukemia) is 9.77; in experiment [1], 7.88.
In the case of `CC(=O)Oc1cc2c(c3c(C)c[nH]c13)[C@H](CCl)CN2C(=O)C12CC(C(=O)N3C[C@@H](CCl)c4c3cc(OC(C)=O)c3[nH]cc(C)c43)(C1)C2` [Compound 91, bicyclo[1.1.1]pentane-1,3-diylbis[carbonyl(1S)-1-(chloromethyl)-8-methyl-1,6-dihydropyrrolo[3,2-e]indole-3,5(2H)-diyl]diacetate], the pIC50 in the experiment on HL60 (leukemia) is 11.40; in experiment [1], 10.24.
For `O=C(CCNC(=O)N1C[C@@H](CCl)c2c1cc(O)c1ccccc21)N1C[C@@H](CCl)c2c1cc(O)c1ccccc21` [Compound 65, (S)-1-Chloromethyl-5-hydroxy-1,2-dihydro-benzo[e]indole-3-carboxylic acid [3-((S)-1-chloromethyl-5-hydroxy-1,2-dihydro-benzo[e]indol-3-yl)-3-oxo-propyl]-amide], the pIC50 with HL60 (leukemia) was 11.40; in experiment [1] it was 9.26.
In the same order, the values of `O=C(c1ccc(C(=O)N2C[C@@H](CCl)c3c2cc(O)c2ccccc32)s1)N1C[C@@H](CCl)c2c1cc(O)c1ccccc21` [Compound 29, (S)-thiophene-2,5-diylbis(((S)-1-(chloromethyl)-5-hydroxy-1H-benzo[e]indol-3(2H)-yl)methanone)] are over 12.00 and 11.05.
With `CC(=O)Oc1cc2c(c3c(C)c[nH]c13)[C@H](CCl)CN2C(=O)CC12CC(C(=O)N3C[C@@H](CCl)c4c3cc(OC(C)=O)c3[nH]cc(C)c43)(C1)C2` [Compound 97, (8S)-6-[(3-{[(1S)-5-(acetyloxy)-1-(chloromethyl)-8-methyl-1,6-dihydropyrrolo[3,2-e]indol-3(2H)-yl]carbonyl}bicyclo[1.1.1]pent-1-yl)acetyl]-8-(chloromethyl)-1-methyl-3,6,7,8-tetrahydropyrrolo[3,2-e]indol-4-yl acetate], the pIC50 was 11.05 in the experiment on HL60 (leukemia) and 9.65 in experiment [1].
Turning to `Nc1cc2c(c3ccccc13)[C@H](CCl)CN2C(=O)C12CC(C(=O)N3C[C@@H](CCl)c4c3cc(N)c3ccccc43)(C1)C2` [Compound 130, bicyclo[1.1.1]pentane-1,3-diylbis{[(1S)-5-amino-1-(chloromethyl)-1,2-dihydro-3H-benzo[e]indol-3-yl]methanone}], the pIC50 in the experiment on HL60 (leukemia) is 9.64; in experiment [1], 8.74.
In the same order, the values of `CC(=O)Oc1cc2c(c3ccccc13)[C@H](CCl)CN2C(=O)Cc1cc(CC(=O)N2C[C@@H](CCl)c3c2cc(OC(C)=O)c2ccccc32)cc([N+](=O)[O-])c1` [Compound 178, (5-nitrobenzene-1,3-diyl)bis[(1-oxoethane-2,1-diyl)(1S)-1-(chloromethyl)-1,2-dihydro-3H-benzo[e]indole-3,5-diyl] diacetate] are 10.44 and 9.32.
Take `CC(=O)Oc1cc2c(c3ccccc13)[C@H](CCl)CN2C(=O)C12CC(CC(=O)N3C[C@@H](CCl)c4c3cc(O)c3ccccc43)(C1)C2` [Compound 162, (1S)-1-(chloromethyl)-3-[(3-{2-[(1S)-1-(chloromethyl)-5-hydroxy-1,2-dihydro-3H-benzo[e]indol-3-yl]-2-oxoethyl}bicyclo[1.1.1]pent-1-yl)carbonyl]-2,3-dihydro-1H-benzo[e]indol-5-yl acetate]: the pIC50 with HL60 (leukemia) was 10.70; in experiment [1], 9.13.
